Assay results: ChEMBL document CHEMBL3352542, “Synthesis, biological evaluation and molecular modeling study of 2-(1,3,4-thiadiazolyl-thio and 4-methyl-thiazolyl-thio)-quinazolin-4-ones as a new class of DHFR inhibitors” (Bioorg Med Chem Lett, 2014)
The source made the active and inactive calls. No cut-off for these calls is given here.

Legend:
[1] = test system: T47D; assay: Growth inhibition of human T47D cells at 10 uM after 48 hrs; assay type: functional
[2] = test system: K562; assay: Growth inhibition of human K562 cells at 10 uM after 48 hrs; assay type: functional
[3] = test system: KM12; assay: Growth inhibition of human KM12 cells at 10 uM after 48 hrs; assay type: functional
[4] = test system: Candida albicans; assay: Antimicrobial activity against Candida albicans assessed as inhibition zone at 200 ug/disk after 24 hrs by disc-diffusion method; assay type: functional; conditions: read-out: IZ
[5] = test system: Pseudomonas aeruginosa; assay: Antimicrobial activity against Pseudomonas aeruginosa assessed as inhibition zone at 200 ug/disk after 24 hrs by disc-diffusion method; assay type: functional; conditions: read-out: IZ
[6] = test system: Staphylococcus aureus; assay: Antimicrobial activity against Staphylococcus aureus assessed as inhibition of visible growth after 24 hrs by disc-diffusion method; assay type: functional, organism-based
[7] = test system: NCI-H226; assay: Growth inhibition of human NCI-H226 cells at 10 uM after 48 hrs; assay type: functional
[8] = test system: Escherichia coli; assay: Antimicrobial activity against Escherichia coli assessed as inhibition zone at 200 ug/disk after 24 hrs by disc-diffusion method; assay type: functional; conditions: read-out: IZ
[9] = test system: UACC-257; assay: Growth inhibition of human UACC257 cells at 10 uM after 48 hrs; assay type: functional
[10] = test system: Bacillus subtilis; assay: Antimicrobial activity against Bacillus subtilis assessed as inhibition of visible growth after 24 hrs by disc-diffusion method; assay type: functional, organism-based
[11] = test system: Staphylococcus aureus; assay: Antimicrobial activity against Staphylococcus aureus assessed as inhibition zone at 200 ug/disk after 24 hrs by disc-diffusion method; assay type: functional; conditions: read-out: IZ
[12] = test system: PC-3; assay: Growth inhibition of human PC3 cells at 10 uM after 48 hrs; assay type: functional
[13] = test system: UO-31; assay: Growth inhibition of human UO31 cells at 10 uM after 48 hrs; assay type: functional
[14] = test system: CAKI-1; assay: Growth inhibition of human CAKI-1 cells at 10 uM after 48 hrs; assay type: functional
[15] = test system: A498; assay: Growth inhibition of human A498 cells at 10 uM after 48 hrs; assay type: functional
[16] = test system: Hs-578T; assay: Growth inhibition of human Hs 578T cells at 10 uM after 48 hrs; assay type: functional
[17] = test system: 786-0; assay: Growth inhibition of human 786-0 cells at 10 uM after 48 hrs; assay type: functional
[18] = test system: RXF 393; assay: Growth inhibition of human RXF393 cells at 10 uM after 48 hrs; assay type: functional
[19] = test system: Malme-3M; assay: Growth inhibition of human MALME-3M cells at 10 uM after 48 hrs; assay type: functional
[20] = test system: HT-29; assay: Growth inhibition of human HT-29 cells at 10 uM after 48 hrs; assay type: functional
[21] = test system: Escherichia coli; assay: Antimicrobial activity against Escherichia coli assessed as inhibition of visible growth after 24 hrs by disc-diffusion method; assay type: functional, organism-based
[22] = test system: RPMI-8226; assay: Growth inhibition of human RPMI8226 cells at 10 uM after 48 hrs; assay type: functional
[23] = test system: SNB-19; assay: Growth inhibition of human SNB19 cells at 10 uM after 48 hrs; assay type: functional
[24] = test system: UACC-62; assay: Growth inhibition of human UACC62 cells at 10 uM after 48 hrs; assay type: functional
[25] = test system: SR; assay: Growth inhibition of human SR cells at 10 uM after 48 hrs; assay type: functional
[26] = test system: SK-MEL-28; assay: Growth inhibition of human SK-MEL-28 cells at 10 uM after 48 hrs; assay type: functional, cell-based
[27] = test system: HL-60(TB); assay: Growth inhibition of human HL-60(TB) cells at 10 uM after 48 hrs; assay type: functional
[28] = test system: OVCAR-4; assay: Growth inhibition of human OVCAR4 cells at 10 uM after 48 hrs; assay type: functional
[29] = test system: HOP-92; assay: Growth inhibition of human HOP92 cells at 10 uM after 48 hrs; assay type: functional
[30] = test system: U-251; assay: Growth inhibition of human U251 cells at 10 uM after 48 hrs; assay type: functional
[31] = test system: HCT-15; assay: Growth inhibition of human HCT15 cells at 10 uM after 48 hrs; assay type: functional
[32] = test system: SF-539; assay: Growth inhibition of human SF539 cells at 10 uM after 48 hrs; assay type: functional
[33] = target: T1, Dihydrofolate reductase (Bos taurus, UniProt P00376); assay: Inhibition of bovine liver DHFR
T1 sequence (P00376 whole entry): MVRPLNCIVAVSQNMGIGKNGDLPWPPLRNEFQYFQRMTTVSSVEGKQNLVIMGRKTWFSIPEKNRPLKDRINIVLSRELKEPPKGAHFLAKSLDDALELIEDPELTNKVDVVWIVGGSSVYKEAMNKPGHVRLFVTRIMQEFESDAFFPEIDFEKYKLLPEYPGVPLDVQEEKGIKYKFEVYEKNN

[34] = test system: SF-295; assay: Growth inhibition of human SF295 cells at 10 uM after 48 hrs; assay type: functional
[35] = test system: MDA-MB-468; assay: Growth inhibition of human MDA-MB-468 cells at 10 uM after 48 hrs; assay type: functional
[36] = test system: A549; assay: Growth inhibition of human A549 cells at 10 uM after 48 hrs; assay type: functional
[37] = test system: MDA-MB-435; assay: Growth inhibition of human MDA-MB-435 cells at 10 uM after 48 hrs; assay type: functional
[38] = test system: MDA-MB-231; assay: Growth inhibition of human MDA-MB-231 cells at 10 uM after 48 hrs; assay type: functional
[39] = test system: HOP-62; assay: Growth inhibition of human HOP62 cells at 10 uM after 48 hrs; assay type: functional
[40] = test system: MOLT-4; assay: Growth inhibition of human MOLT4 cells at 10 uM after 48 hrs; assay type: functional
[41] = test system: SK-MEL-5; assay: Growth inhibition of human SK-MEL-5 cells at 10 uM after 48 hrs; assay type: functional
[42] = test system: HCT-116; assay: Growth inhibition of human HCT116 cells at 10 uM after 48 hrs; assay type: functional
[43] = test system: MCF7; assay: Growth inhibition of human MCF7 cells at 10 uM after 48 hrs; assay type: functional
[44] = test system: CCRF-CEM; assay: Growth inhibition of human CCRF-CEM cells at 10 uM after 48 hrs; assay type: functional
[45] = test system: NCI-H522; assay: Growth inhibition of human NCI-H522 cells at 10 uM after 48 hrs; assay type: functional
[46] = test system: Bacillus subtilis; assay: Antimicrobial activity against Bacillus subtilis assessed as inhibition zone at 200 ug/disk after 24 hrs by disc-diffusion method; assay type: functional; conditions: read-out: IZ

## Cc1ccc(-n2c(Sc3nnc(N)s3)nc3ccc(Cl)cc3c2=O)cc1
[1]
  growth inhibition (GI): inactive
[2]
  growth inhibition (GI): inactive
[3]
  growth inhibition (GI): inactive
[4]
  zone of inhibition at 200 µg/disc: 10 mm
[5]
  zone of inhibition at 200 µg/disc: 14 mm
[6]
  Activity: Active
[7]
  growth inhibition (GI): inactive
[8]
  zone of inhibition at 200 µg/disc: 18 mm
[9]
  growth inhibition (GI): inactive
[10]
  Activity: Active
[11]
  zone of inhibition at 200 µg/disc: 18 mm
[12]
  growth inhibition (GI): inactive
[13]
  growth inhibition (GI): inactive
[14]
  growth inhibition (GI): inactive
[15]
  growth inhibition (GI): inactive
[16]
  growth inhibition (GI): inactive
[17]
  growth inhibition (GI): inactive
[18]
  growth inhibition (GI): inactive
[19]
  growth inhibition (GI): inactive
[20]
  growth inhibition (GI): inactive
[21]
  Activity: Active
[22]
  growth inhibition (GI): inactive
[23]
  growth inhibition (GI): inactive
[24]
  growth inhibition (GI): inactive
[25]
  growth inhibition (GI): inactive
[26]
  growth inhibition (GI): inactive
[27]
  growth inhibition (GI): inactive
[28]
  growth inhibition (GI): inactive
[29]
  growth inhibition (GI): inactive
[30]
  growth inhibition (GI): inactive
[31]
  growth inhibition (GI): inactive
[32]
  growth inhibition (GI): inactive
[33]
  IC50: 8 µM
[34]
  growth inhibition (GI): inactive
[35]
  growth inhibition (GI): inactive
[36]
  growth inhibition (GI): inactive
[37]
  growth inhibition (GI): inactive
[38]
  growth inhibition (GI): inactive
[39]
  growth inhibition (GI): inactive
[40]
  growth inhibition (GI): inactive
[41]
  growth inhibition (GI): inactive
[42]
  growth inhibition (GI): inactive
[43]
  growth inhibition (GI): inactive
[44]
  growth inhibition (GI): inactive
[45]
  growth inhibition (GI): inactive
[46]
  zone of inhibition at 200 µg/disc: 20 mm

## Cc1ccc2nc(Sc3nnc(N)s3)n(-c3ccccc3)c(=O)c2c1
[1]
  growth inhibition (GI): inactive
[2]
  growth inhibition (GI): inactive
[3]
  growth inhibition (GI): inactive
[4]
  zone of inhibition at 200 µg/disc: 8 mm
[5]
  zone of inhibition at 200 µg/disc: 8 mm
[7]
  growth inhibition (GI): inactive
[8]
  zone of inhibition at 200 µg/disc: 8 mm
[9]
  growth inhibition (GI): inactive
[11]
  zone of inhibition at 200 µg/disc: 8 mm
[12]
  growth inhibition (GI): inactive
[13]
  growth inhibition (GI): inactive
[14]
  growth inhibition (GI): inactive
[15]
  growth inhibition (GI): inactive
[16]
  growth inhibition (GI): inactive
[17]
  growth inhibition (GI): inactive
[18]
  growth inhibition (GI): inactive
[19]
  growth inhibition (GI): inactive
[20]
  growth inhibition (GI): inactive
[22]
  growth inhibition (GI): inactive
[23]
  growth inhibition (GI): inactive
[24]
  growth inhibition (GI): inactive
[25]
  growth inhibition (GI): inactive
[26]
  growth inhibition (GI): inactive
[27]
  growth inhibition (GI): inactive
[28]
  growth inhibition (GI): inactive
[29]
  growth inhibition (GI): inactive
[30]
  growth inhibition (GI): inactive
[31]
  growth inhibition (GI): inactive
[32]
  growth inhibition (GI): inactive
[33]
  IC50: 7 µM
[34]
  growth inhibition (GI): inactive
[35]
  growth inhibition (GI): inactive
[36]
  growth inhibition (GI): inactive
[37]
  growth inhibition (GI): inactive
[38]
  growth inhibition (GI): inactive
[39]
  growth inhibition (GI): inactive
[40]
  growth inhibition (GI): inactive
[41]
  growth inhibition (GI): inactive
[42]
  growth inhibition (GI): inactive
[43]
  growth inhibition (GI): inactive
[44]
  growth inhibition (GI): inactive
[45]
  growth inhibition (GI): inactive
[46]
  zone of inhibition at 200 µg/disc: 8 mm
